According to the supplement of paper PMC10307832:

Key:
Test in all cases: relative viability (nuclei count vs DMSO), 5 days (fraction); higher = more cells survive
[1] = compound: C/C(=N\NC(=S)N1CCC1)/C2=CC=CC=N2 + CC(=O)c1c(C)c2cnc(Nc3ccc(N4CCNCC4)cn3)nc2n(C2CCCC2)c1=O [Palbociclib] (partner 0.5 µM)
How it was run: (§1)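 Lung cancer cell lines in 1536-well plates got either a single drug or a fixed anchor-drug dose together with five library-drug doses (not always all listed) in √10 steps, by pin tool, on the day after seeding. Nuclei were counted after 5 days, and relative viability is the treated-to-vehicle ratio of nuclei counts. Values are medians of duplicate plates.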

[2] = compound: C/C(=N\NC(=S)N1CCC1)/C2=CC=CC=N2 + CC(C)C[C@H](NC(=O)[C@H](Cc1ccccc1)NC(=O)c1cnccn1)B(O)O [Bortezomib] (partner 0.002 µM)
How it was run: as §1

[3] = compound: C/C(=N\NC(=S)N1CCC1)/C2=CC=CC=N2 + COc1cc2c(Oc3ccc(NC(=O)C4(C(=O)Nc5ccc(F)cc5)CC4)cc3F)ccnc2cc1OCCCN1CCOCC1 [Foretinib] (partner 0.25 µM)
How it was run: as §1

[4] = compound: C/C(=N\NC(=S)N1CCC1)/C2=CC=CC=N2 + CS(=O)(=O)N1CCN(Cc2cc3nc(-c4cccc5[nH]ncc45)nc(N4CCOCC4)c3s2)CC1 [Pictilisib] (partner 1 µM)
How it was run: as §1

| Cell Line | relative viability ([1]; first compound 0.05 µM) | relative viability ([1]; first compound 0.1581 µM) | relative viability ([1]; first compound 0.5 µM) | relative viability ([1]; first compound 1.581 µM) | relative viability ([1]; first compound 5 µM) | relative viability ([2]; first compound 0.05 µM) | relative viability ([2]; first compound 0.1581 µM) | relative viability ([2]; first compound 0.5 µM) | relative viability ([2]; first compound 1.581 µM) | relative viability ([2]; first compound 5 µM) | relative viability ([3]; first compound 0.05 µM) | relative viability ([3]; first compound 0.1581 µM) | relative viability ([3]; first compound 0.5 µM) | relative viability ([3]; first compound 1.581 µM) | relative viability ([3]; first compound 5 µM) | relative viability ([4]; first compound 0.05 µM) | relative viability ([4]; first compound 0.1581 µM) | relative viability ([4]; first compound 0.5 µM) | relative viability ([4]; first compound 1.581 µM) | relative viability ([4]; first compound 5 µM) |
| --- | --- | --- | --- | --- | --- | --- | --- | --- | --- | --- | --- | --- | --- | --- | --- | --- | --- | --- | --- | --- |
| HCC-78 | 0.355 | 0.368 | 0.273 | 0.329 | 0.323 | 0.509 | 0.257 | 0.178 | 0.153 | 0.232 | 0.488 | 0.451 | 0.367 | 0.237 | 0.235 | 0.184 | 0.176 | 0.119 | 0.163 | 0.153 |
| HCC-366 | 0.065 | 0.0358 | 0.0237 | 0.0228 | 0.026 | 0.0281 | 0.0189 | 0.0149 | 0.0223 | 0.02 | 0.127 | 0.346 | 0.0579 | 0.0562 | 0.0285 | 0.0297 | 0.0246 | 0.029 | 0.0344 | 0.0355 |
| HCC-827 | 0.272 | 0.229 | 0.173 | 0.166 | 0.144 | 0.497 | 0.497 | 0.325 | 0.274 | 0.282 | 0.538 | 0.583 | 0.239 | 0.223 | 0.17 | 0.6 | 0.541 | 0.322 | 0.382 | 0.388 |
| HOP-62 | 0.0827 | 0.234 | 0.0724 | 0.107 | 0.0858 | 0.067 | 0.0599 | 0.0594 | 0.0602 | 0.0491 | 0.21 | 0.243 | 0.114 | 0.116 | 0.112 | 0.0606 | 0.0715 | 0.0848 | 0.0699 | 0.0611 |
| IA-LM | – | – | – | – | – | 0.0596 | 0.0778 | 0.0529 | 0.0604 | 0.0675 | 0.0694 | 0.0465 | 0.0654 | 0.0441 | 0.0339 | 0.0879 | 0.0508 | 0.0707 | 0.0558 | 0.0544 |
| LC-2-ad | 0.224 | 0.196 | 0.192 | 0.172 | 0.202 | 0.115 | 0.106 | 0.114 | 0.104 | 0.0851 | 0.225 | 0.309 | 0.267 | 0.227 | 0.235 | 0.141 | 0.106 | 0.103 | 0.103 | 0.117 |
| LCLC-97TM1 | 0.0948 | 0.223 | 0.0874 | 0.0867 | 0.0722 | 0.0597 | 0.0472 | 0.0458 | 0.0548 | 0.0452 | 0.511 | 0.752 | 0.193 | 0.12 | 0.155 | 0.101 | 0.141 | 0.0914 | 0.117 | 0.101 |
| LK-2 | 0.0858 | 0.0843 | 0.0965 | 0.0618 | 0.112 | – | – | – | – | – | 0.134 | 0.183 | 0.202 | 0.133 | 0.146 | 0.146 | 0.263 | 0.268 | 0.198 | 0.238 |
| NCI-H358 | 0.0943 | 0.103 | 0.106 | 0.07 | 0.0834 | – | – | – | – | – | 0.0918 | 0.107 | 0.0747 | 0.0879 | 0.107 | 0.178 | 0.214 | 0.19 | 0.142 | 0.163 |
